From patent publication US7238697B2, “Pyridylpyrimidines for use as pesticides” (Bayer CropScience AG, priority 2001, dated 2007)
Like-named read-outs stand apart in the source and are kept apart here.

Assays:
Format in all cases: in vivo
[1] = system: cotton aphid (Aphis gossypii); test: Aphis gossypii test (cotton leaves dipped); settings: 200 ppm
Method: To produce a suitable preparation of active compound, 1 part by weight of active compound is mixed with the stated amounts of solvent and emulsifier, and the concentrate is diluted with emulsifier-containing water to the desired concentration. Cotton leaves (Gossypium hirsutum) which are heavily infested by the cotton aphid (Aphis gossypii) are treated by being dipped into the preparation of active compound of the desired concentration. After the desired period of time, the kill in % is determined. 100% means that all aphids have been killed; 0% means that none of the aphids have been killed.

[2] = system: thrips (Franklinella occidentalis); test: Franklinella test (cucumber plants sprayed); settings: 1000 ppm
Method: To product a suitable preparation of active compound, 1 part by weight of active compound is mixed with the stated amounts of solvent and emulsifier, and the concentrate is diluted to the desired concentration.
Cucumber plants (Cucumis sativus) which are heavily infested by all stages of thrips (Franklinella occidentalis) are sprayed with a preparation of active compound of the desired concentration.
After the desired period of time, the effect in % is determined. 100% means that all thrips have been killed; 0% means that none of the thrips have been killed.

Meloidogyne incognita = test: Meloidogyne test (gall formation on lettuce roots); settings: 336 h, after 14 d, read-out: Kill rate in % after 14 d
Method: To produce a suitable preparation of active compound, 1 part by weight of active compound is mixed with the stated amounts of solvent and emulsifier, and the concentrate is diluted with water to the desired concentration. Vessels are filled with sand, solution of active compound, Meloidogyne incognita egg/larvae suspension and lettuce seeds. The lettuce seeds germinate and the plants develop. On the roots, galls are formed. After the desired period of time, the nematicidal action is determined in % by the gall formation. 100% means that no galls were found; 0% means that the number of galls on the treated plants corresponds to that of the untreated control.

[3] = system: peach aphids (Myzus persicae); test: Myzus test (cabbage leaves dipped); settings: 144 h, after 6 d, read-out: Kill rate in % after 6 d; for pest or weed control at 500 ppm: solvent 7 parts DMF, emulsifier 2 parts (Table D-2)
Method: To produce a suitable preparation of active compound, 1 part by weight of active compound is mixed with the stated amounts of solvent and emulsifier, and the concentrate is diluted with emulsifier-containing water to the desired concentration. Cabbage leaves (Brassica oleracea) which are heavily infested by peach aphids (Myzus persicae) are treated by being dipped into the preparation of the active compound of the desired concentration. After the desired period of time, the kill in % is determined. 100% means that all aphids have been killed; 0% means that none of the aphids has been killed.

[4] = system: larvae of the mustard beetle (Phaedon cochleariae); test: Phaedon larvae test (cabbage leaves dipped)
Method: To produce a suitable preparation of active compound, 1 part by weight of active compound is mixed with the stated amounts of solvent and emulsifier, and the concentrate is diluted with emulsifier-containing water to the desired concentration. Cabbage leaves (Brassica oleracea) are treated by being dipped into the preparation of active compound of the desired concentration and are populated with larvae of the mustard beetle (Phaedon cochleariae) while the leaves are still moist. After the desired period of time, the kill in % is determined. 100% means that all beetle larvae have been killed; 0% means that none of the beetle larvae have been killed.

[5] = system: caterpillars of the army worm (Spodoptera frugiperda); test: Spodoptera frugiperda test (cabbage leaves dipped); settings: 500 ppm, solvent 7 parts DMF, emulsifier 2 parts
Method: To produce a suitable preparation of active compound, 1 part by weight of active compound is mixed with the stated amounts of solvent and emulsifier, and the concentrate is diluted with emulsifier-containing water to the desired concentration. Cabbage leaves (Brassica oleracea) are treated by being dipped into the preparation of active compound of the desired concentrated and are populated with caterpillars of the army worm (Spodoptera frugiperda) while the leaves are still moist. After the desired period of time, the kill in % is determined. 100% means that all caterpillars have been killed; 0% means that none of the caterpillars has been killed.

[6] = solvent 30 parts DMF, emulsifier 1 part (Table C-1)
[7] = solvent 7 parts DMF, emulsifier 2 parts (Table C-2)
[8] = solvent 30 parts DMF, emulsifier 1 part (Table D-1)
[9] = 500 ppm, solvent 7 parts DMF, emulsifier 2 parts (Table E-2)

SMILES: COC(=O)CSc1nccc(-c2ccccn2)n1 [drawing 398]
- Kill rate in % after 6 d [1]: 85%

SMILES: CCCOC(=O)CSc1nccc(-c2ccccn2)n1 [drawing 399]
- Kill rate in % after 6 d [1]: 85%

SMILES: O=C(CSc1nccc(-c2ccccn2)n1)OC1CCCCC1 [drawing 400]
- Kill rate in % after 6 d [1]: 90%

SMILES: COC(=O)CSc1nccc(-c2ccccn2)n1 [drawing 401]
- Kill rate in % after 7 d [2]: 99%

SMILES: CCOC(=O)CSc1nccc(-c2ccccn2)n1 [drawing 402]
- pest or weed control at 20 ppm (Meloidogyne incognita; [6]): 90%

SMILES: COCCOC(=O)CSc1nccc(-c2ccccn2)n1 [drawing 403]
- pest or weed control at 20 ppm (Meloidogyne incognita; [6]): 90%

SMILES: CC(C)=NNC(=O)CSc1nccc(-c2ccccn2)n1 [drawing 404]
- pest or weed control at 20 ppm (Meloidogyne incognita; [6]): 98%

SMILES: COC(=O)CCCSc1nccc(-c2ccccn2)n1 [drawing 405]
- pest or weed control at 20 ppm (Meloidogyne incognita; [6]): 90%

SMILES: COC(=O)CSc1nc(-c2ccccn2)c2cc(Cl)ccc2n1 [drawing 406]
- pest or weed control at 20 ppm (Meloidogyne incognita; [6]): 98%

SMILES: COC(=O)CSc1nc(-c2ccccn2)cc(-c2ccccn2)n1 [drawing 407]
- pest or weed control at 20 ppm (Meloidogyne incognita; [6]): 95%

SMILES: CCOC(=O)/C=C/CSc1nccc(-c2ccccn2)n1 [drawing 408]
- pest or weed control at 20 ppm (Meloidogyne incognita; [6]): 100%

SMILES: CCOC(=O)C(C)OC(=O)CSc1nccc(-c2ccccn2)n1 (stereo not drawn) [drawing 409]
- pest or weed control at 20 ppm (Meloidogyne incognita; [7]): 80%

SMILES: COC(=O)CSc1nc(-c2ccccc2)cc(-c2ccccn2)n1 [drawing 410]
- pest or weed control at 20 ppm (Meloidogyne incognita; [7]): 100%

SMILES: CCOC(=O)CSc1nccc(-c2ccc(CC)cn2)n1 [drawing 411]
- pest or weed control at 20 ppm (Meloidogyne incognita; [7]): 90%

SMILES: CCOC(=O)CSc1nccc(-c2ccc(C)cn2)n1 [drawing 412]
- pest or weed control at 20 ppm (Meloidogyne incognita; [7]): 90%

SMILES: CCOC(=O)CSc1nccc(-c2ccc(C(F)(F)F)cn2)n1 [drawing 413]
- pest or weed control at 20 ppm (Meloidogyne incognita; [7]): 100%

SMILES: CC(C)(C)n1nnc(CSc2nccc(-c3ccccn3)n2)n1 [drawing 414]
- pest or weed control at 20 ppm (Meloidogyne incognita; [7]): 90%

SMILES: CC(C)OC(=O)CSc1nccc(-c2ccccn2)n1 [drawing 418]
- pest or weed control at 1000 ppm [3, 8]: 100%

SMILES: C=CCOC(=O)CSc1nccc(-c2ccccn2)n1 [drawing 419]
- pest or weed control at 1000 ppm [3, 8]: 95%

SMILES: O=C(CSc1nccc(-c2ccccn2)n1)OC1CCCCC1 [drawing 420]
- pest or weed control at 1000 ppm [3, 8]: 100%

SMILES: COC(=O)C(Sc1nccc(-c2ccccn2)n1)C(=O)OC [drawing 421]
- pest or weed control at 100 ppm ([3]; 100 ppm, solvent 30 parts DMF, emulsifier 1 part (Table D-1)): 95%

SMILES: NC(=O)CSc1nccc(-c2ccccn2)n1 [drawing 422]
- pest or weed control at 1000 ppm [3, 8]: 95%

SMILES: COC(=O)CCCSc1nccc(-c2ccccn2)n1 [drawing 423]
- pest or weed control at 1000 ppm [3, 8]: 100%

SMILES: O=C(O)CSc1nccc(-c2ccccn2)n1 [drawing 424]
- pest or weed control at 1000 ppm [3, 8]: 100%

SMILES: COC(=O)CC(=O)CSc1nccc(-c2ccccn2)n1 [drawing 427]
- pest or weed control at 200 ppm ([3]; 200 ppm, solvent 30 parts DMF, emulsifier 1 part (Table D-1)): 95%

SMILES: CCC1(COC(=O)CSc2nccc(-c3ccccn3)n2)CCO1 (stereo not drawn) [drawing 428]
- pest or weed control at 500 ppm [3]: 98%

SMILES: CCOC(=O)C1CC1COC(=O)CSc1nccc(-c2ccccn2)n1 (stereo not drawn) [drawing 429]
- pest or weed control at 500 ppm [3]: 98%

SMILES: COCN(C)C(=O)COC(=O)CSc1nccc(-c2ccccn2)n1 [drawing 430]
- pest or weed control at 500 ppm [3]: 98%

SMILES: O=C(CSc1nccc(-c2ccccn2)n1)OCC(F)=C(Cl)Cl [drawing 431]
- pest or weed control at 500 ppm [3]: 100%

SMILES: O=C(CSc1nccc(-c2ccccn2)n1)OC1CS(=O)(=O)C1 [drawing 432]
- pest or weed control at 500 ppm [3]: 100%

SMILES: CC(=O)NCC(C)OC(=O)CSc1nccc(-c2ccccn2)n1 (stereo not drawn) [drawing 433]
- pest or weed control at 500 ppm [3]: 95%

SMILES: CC(C)OC(=O)C(C)OC(=O)CSc1nccc(-c2ccccn2)n1 (stereo not drawn) [drawing 434]
- pest or weed control at 500 ppm [3]: 95%

SMILES: O=C(CSc1nccc(-c2ccccn2)n1)OC1CC(F)(F)C1(F)F (stereo not drawn) [drawing 435]
- pest or weed control at 500 ppm [3]: 100%

SMILES: O=C(CSc1nccc(-c2ccccn2)n1)OC1COC1 [drawing 436]
- pest or weed control at 500 ppm [3]: 95%

SMILES: NC(=O)CCSc1nccc(-c2ccccn2)n1 [drawing 437]
- pest or weed control at 500 ppm [3]: 80%

SMILES: CC(C)(C)SC(=O)CSc1nccc(-c2ccccn2)n1 [drawing 438]
- pest or weed control at 500 ppm [3]: 95%

SMILES: CCOC(=O)CSc1nccc(-c2cc(OC)ccn2)n1 [drawing 439]
- pest or weed control at 500 ppm [3]: 90%

SMILES: CCOC(=O)CSc1nccc(-c2ccc(C)cn2)n1 [drawing 440]
- pest or weed control at 500 ppm [3]: 98%

SMILES: O=C(CSc1nccc(-c2ccccn2)n1)N/N=C/c1ccc([N+](=O)[O-])cc1 [drawing 441]
- Kill rate in % after 7 d ([4]; 1000 ppm, solvent 30 parts DMF, emulsifier 1 part (Table E-1)): 100%

SMILES: CCOC(=O)CSc1nccc(-c2ccc(C(F)(F)F)cn2)n1 [drawing 442]
- Kill rate in % after 7 d [4, 9]: 100%

SMILES: CCOC(=O)CSc1nccc(-c2ccc(Cl)cn2)n1 [drawing 443]
- Kill rate in % after 7 d [4, 9]: 100%

SMILES: CC(C)(C)n1nnc(CSc2nccc(-c3ccccn3)n2)n1 [drawing 444]
- Kill rate in % after 7 d [4, 9]: 100%

SMILES: CCOC(=O)CSc1nc(C)cc(-c2ccccn2)n1 [drawing 445]
- Kill rate in % after 7 d [5]: 100%

SMILES: CCOC(=O)CSc1nccc(-c2ccc(C(F)(F)F)cn2)n1 [drawing 446]
- Kill rate in % after 7 d [5]: 100%

SMILES: CC(C)(C)n1nnc(CSc2nccc(-c3ccccn3)n2)n1 [drawing 447]
- Kill rate in % after 7 d [5]: 100%
